Reference: patent EP0082577A1, “Fungicidal composition and method of combating fungal growth” (SHELL INTERNATIONALE RESEARCH MAATSCHAPPIJ B.V., priority 1981, dated 1983)
Where a name gives a salt, the structure may show the parent alone.

Experiments:
Assay type in all cases: in vivo
Plamopara viticola = assay: Grapevine leaf disc test: disease suppression; conditions: alone, 7 days at 21°C
Experimental: Leaf discs of grapevine (cv. Cabernet Sauvignon) 23mm in diameter, were supported on water agar in petri dishes, and sprayed with various aqueous test preparations. After the spray had dried, the discs were inoculated with Plamopara viticola. The dishes were closed and incubated for 7 days at 21°C. At the end of this period, the percentage area of each disc covered with sporulating downy mildew was estimated, and compared with that on inoculated, untreated control discs.
In this Table, the theorectical degree of disease suppression, assuming that the two fungicides act independently (i.e. additively) is calculated using the formula: [formula] where x and y are the activities of the two components used separately. If the actual degree of disease suppression (as measured in the test) is greater than the calculated value, then the two fungicides have interacted synergistically.

Plasmopara viticola = assay: Field spray test on adult fruit-bearing grapevines: disease level; conditions: percentage of disease level on control vines
Experimental: (§1) The fungicidal and phytotoxic effects of the sodium salt of N-hydroxy-N-formylalanine in admixture with N-(trichlormethyl- thio)phthalimide were compared to those of the N-hydroxy-N-formylalanine salt alone using the following procedure. The test solutions were sprayed onto adult, fruit-bearing grapevines (cv Sauvignon) at 18 day intervals during June, July and August. Four replicate plots were treated. Controls were left untreated.
(§2) The test solutions contained the active ingredient(s), distilled water and 100ppm of Tween 20 surfactant (Trade mark).
Seven days after the first spray application and 13 days after the third spray application the vines were innoculated with a spore suspension containing Plasmopara viticola.
(§3) Assessments of the disease level and phytotoxicity were made 19 days after the 1st treatment, and then after a further 4 weeks (11 days after the 3rd treatment) .
The extent of disease control in the test is expressed as a percentage of the disease level occuring on the control vines.

[1] = tested on: grapevines (cv Sauvignon); assay: Field spray test on adult fruit-bearing grapevines: phytotoxicity rating; conditions: mean rating 0-5
Experimental: as §1, §2, §3
Phytotoxicity is expressed as a mean rating compared with the control according to the criteria, • 0 = absolutely no phytotoxicity • 1 = doubtful occurence of phytotoxicity • 2 = distinct, but very slight phytotoxicity • 3,4 = slight to moderate phytotoxicity • 5 = phytotoxicity of an unacceptable degree.

[2] = 250 ppm sodium salt alone, 11 days after 3rd application
[3] = 250 ppm sodium salt alone, 19 days after 1st application
[4] = 500 ppm sodium salt alone, 11 days after 3rd application
[5] = 500 ppm sodium salt alone, 19 days after 1st application

Row | Compound | Disease Suppression (% of control) Actual (Plamopara viticola; 1 ppm in spray) | Disease Suppression (% of control) Actual (Plamopara viticola; 5 ppm in spray) | Disease Suppression (% of control) Actual (Plamopara viticola; 10 ppm in spray) | DISEASE (Plasmopara viticola; [2]) [%] | DISEASE (Plasmopara viticola; [3]) [%] | DISEASE (Plasmopara viticola; [4]) [%] | DISEASE (Plasmopara viticola; [5]) [%] | PHYTOTOXICITY [1, 2] | PHYTOTOXICITY [1, 3] | PHYTOTOXICITY [1, 4] | PHYTOTOXICITY [1, 5] | Disease Suppression (% of control) Actual (Plamopara viticola; 7.5 ppm in spray) | Disease Suppression (% of control) Actual (Plamopara viticola; 15.0 ppm in spray) | Disease Suppression (% of control) Actual (Plamopara viticola; 30.0 ppm in spray)
1 | O=C1c2ccccc2C(=O)N1SC(Cl)(Cl)Cl [N-(trichloromethylthio) phthalimide, N-(trichloromethylthio)phthalimide, reference compound] | -16.2 % of control | -2.7 % of control | 82.4 % of control |  |  |  |  |  |  |  |  |  |  | 
2 | CC(C(=O)O)N(O)C=O (centres unmarked) [sodium salt of N-hydroxy-N-formylalanine] |  |  |  | 26.8 | 34.7 | 14.4 | 17.6 | 0.8 | 0.5 | 1.5 | 2.0 | -8.1 % of control | -2.7 % of control | 37.8 % of control
